Like-named read-outs stand apart in the source and are kept apart here.

A word on the GI50: it is the concentration at which growth is held to half of that of the control. The melting point is the temperature, or range, at which the solid turns liquid.

The subject of one data set is LNCaP cells. Put plainly: Cell growth inhibition (MTT colorimetric assay), LNCaP. Format: cell-based, human. As to conditions: Homo sapiens. How it is done: (§1) Compounds were evaluated on their ability to inhibit LNCaP cell (androgen sensitive AR-mutant), C4-2B and CWR22Rv1 (CRPC cell lines) viability at 1 and 10 μM concentrations by the MTT assy.
(§2) The cells were seeded in 96-well plates (Corning Costar) at a density of 5×10^3 cells per well. Cells were allowed to adhere to the plate for 24 hours and then treated with various concentrations of compounds dissolved in 95% EtOH. Cells were treated for 7 days with renewal of test compound and media on day 4. On the 7th day, medium was renewed and MTT (3-(4,5-dimethylthiazol-2-yl)-2,5-diphenyl-2H-tetrazolium bromide) (Sigma, St Louis, Mo., USA) solution (0.5 mg MTT per ml of media) was added to the medium such that the ratio of MTT: medium was 1:10. The cells were incubated with MTT for 2 hours. The medium was then aspirated and DMSO was added to solubilize the violet MTT-formazan product. The absorbance at 562 nm was measured by spectrophotometry (Biotek Inc.).
(Tetrazolium dyes change colour on reduction, which living cells bring about.)

The next data set deals with CWR22Rv1. Put plainly: Cell growth inhibition (MTT colorimetric assay), CWR22Rv1. Format: cell-based. As to conditions: Homo sapiens. The protocol: as §1, §2
Data set [1] relates to LNCaP cell, C4-2B and CWR22Rv1. Put plainly: Cell growth inhibition (MTT), anticancer activity, cell line not given. Format: cell-based, human. The settings on record: cell line not stated. How it is done: as §1
For another data set, the target named is T1, AR protein (Homo sapiens, UniProt P10275, T878A).
T1 construct: Effect of compounds on suppression of AR protein levels in LNCaP cells; endogenous in cells; host or cells: LNCaP
T1 sequence (P10275 1-920 T878A): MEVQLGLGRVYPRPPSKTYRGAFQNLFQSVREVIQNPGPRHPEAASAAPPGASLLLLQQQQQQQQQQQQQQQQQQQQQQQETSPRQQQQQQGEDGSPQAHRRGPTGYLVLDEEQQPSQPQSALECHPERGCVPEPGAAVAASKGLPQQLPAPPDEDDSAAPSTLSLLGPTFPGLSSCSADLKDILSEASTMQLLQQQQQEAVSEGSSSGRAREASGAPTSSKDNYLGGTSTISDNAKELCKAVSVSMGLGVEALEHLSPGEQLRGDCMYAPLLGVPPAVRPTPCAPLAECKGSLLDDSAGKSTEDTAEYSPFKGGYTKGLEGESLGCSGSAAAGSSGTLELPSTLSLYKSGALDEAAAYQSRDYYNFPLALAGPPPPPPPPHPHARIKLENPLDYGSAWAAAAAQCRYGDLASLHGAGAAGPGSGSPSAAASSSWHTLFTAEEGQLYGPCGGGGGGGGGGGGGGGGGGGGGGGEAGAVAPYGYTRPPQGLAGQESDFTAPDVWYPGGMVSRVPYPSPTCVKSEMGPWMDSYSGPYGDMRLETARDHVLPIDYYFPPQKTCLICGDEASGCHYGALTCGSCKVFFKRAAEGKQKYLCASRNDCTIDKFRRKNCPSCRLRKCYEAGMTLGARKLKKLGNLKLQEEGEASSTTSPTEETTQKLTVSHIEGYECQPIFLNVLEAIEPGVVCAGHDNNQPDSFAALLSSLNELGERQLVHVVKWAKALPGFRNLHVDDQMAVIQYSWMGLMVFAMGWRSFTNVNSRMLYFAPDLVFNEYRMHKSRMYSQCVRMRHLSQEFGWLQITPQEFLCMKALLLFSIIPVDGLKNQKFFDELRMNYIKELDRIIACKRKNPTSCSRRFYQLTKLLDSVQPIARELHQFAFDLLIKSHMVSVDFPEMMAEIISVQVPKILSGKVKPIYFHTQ
Description: Western blotting, AR protein levels in LNCaP cells. Format: cell-based. As to conditions: 15 μM of each compound for 24 h (FIG. 8). How it is done: The ability of various compounds to down-regulate AR protein expressions was determined by western blotting.

Data set [2] has as its system full length AR and the splice variants ARs. Put plainly: AR down-regulation in CWR22Rv1 (FIGS. 9D, 9E, 9F). Format: cell-based, human. As to conditions: 9E and 9F. How it is done:
(§3) In the experiments show in FIG. 9, LNCaP and CWR22Rv1 cells were treated VN/124-1 and analogs at varying time points and effects on significant cancer cells promoting genes investigated at the protein level.

The subject of a further data set is full length AR. Description: AR down-regulation (FIG. 9H). Format: cell-based, human.
Data set [3] relates to PARP cleavage, CDC25c, Mnk2, Cyclin D1, Cox-2 and N-Cadherin in LNCaP cells. Put plainly: Effects of compounds on oncogenes at the protein level, LNCaP cells. Format: cell-based, human. As to conditions: FIGS. 9A and 9C. How it is done:
as §3

The subject of data set [4] is N-Cadherin, AR3, Mnk1/2, MMP-2, Ezh2, Mc1-1, eIF4E phosphorylation in CWR22Rv1 cells. Put plainly: Effects of compounds on oncogenes at the protein level, CWR22Rv1 cells. Format: cell-based, human. As to conditions: FIGS. 9B and 9G.
The test system of the next data set is PC3 cells. Put plainly: Cell migration of PC3 cells. Format: cell-based, human. As to conditions: 5 μM, after 12 hours; FIG. 10.
The mark [5] stands for this setting: LNCaP, 168 h, Steroidal VNPP compounds table, treated for 7 days, read-out: GI50 Values High Passage LNCaP.
Setting [6] is: CWR22Rv1, 168 h, Steroidal VNPP compounds table, treated for 7 days.
The mark [7] stands for this setting: Table 10, LNCaP low passage, concentration required to inhibit cell growth by 50%, read-out: GI50 Values LNCaP (Low Passage).
Setting [8] is: LNCaP, 168 h, Non-steroidal VNPP compounds table, treated for 7 days, read-out: GI50 Values High Passage LNCaP.
Where [9] appears, read: LNCaP, 168 h, Non-steroidal VNPP compounds table, treated for 7 days, read-out: GI50 Values Low Passage LNCaP.
[10] abbreviates: CWR22Rv1, 168 h, Non-steroidal VNPP compounds table, treated for 7 days.
Setting [11] is: LNCaP, 168 h, Steroidal VNPP compounds table, treated for 7 days, read-out: GI50 Values Low Passage LNCaP.
[12] abbreviates: Table 10, LNCaP high passage, read-out: GI50 Values LNCaP (High Passage).

`CO[C@H]1CC[C@@]2(C)C(=CC[C@@H]3[C@@H]2CC[C@]2(C)C(n4cnc5ccccc54)=CC[C@@H]32)C1` [VNPP412, 3β-(methoxy)-17-(1H-benzimidazol-1-yl) androsta-5,16-diene]: the GI50 came out at 8.71 µM in the data set on LNCaP cells (setting [5]) and 7.5 µM in the data set on CWR22Rv1 (setting [6]).

For `CNC(=O)c1ccc(N2C(=S)N(c3ccc(C#N)c(C(F)(F)F)c3)C(=O)C2(C)C)cc1F` [MDV3100, reference compound], the GI50 in the data set on LNCaP cells (setting [5]) and with LNCaP cells (setting [7]) was 4.85 µM in each case.

For the molecule `C[C@]12CCC3c4ccc(O)cc4CCC3C1CC=C2n1cnc2ccccc21` (stereo partly drawn) [VNPP338], the “Anticancer activity (SAR statement)” value in [1] was “equal potent anticancer activity to compound VN/124-1”. Further, at AR protein, the “AR down-regulating action (AR protein levels, western blot)” value was “potent AR down-regulating agents”. In addition, in data set [2], the “AR down-regulation against full length AR and the splice variants ARs” value is “showed activity (AR down-regulation)”.

Consider `C[C@]12CC[C@H](OC(=S)n3ccnc3)CC1=CCC1C2CC[C@]2(C)C(n3cnc4ccccc43)=CCC12` (stereo partly drawn) [VNPP397, 3β-(1H-imidazole-1-thiocarboxylate)-17-(1H-benzimidazol-1-yl)androsta-5,16-diene], for which the concentration for 50% growth inhibition (GI50) was 9.57 µM in the data set on LNCaP cells (setting [5]) and 7.52 µM with CWR22Rv1 (setting [6]).

On to `Oc1ccc2cc(-c3cccc(-n4cnc5ccccc54)c3)ccc2c1` [VNPP372/2, 6-(3-benzimidazolylphenyl)naphthalen-2-ol], for which the GI50 is 6.09 µM in the data set with LNCaP cells (setting [8]), 5.77 µM in the data set on LNCaP cells (setting [9]) and 8.91 µM with CWR22Rv1 (setting [10]).

With `C[C@]12CC[C@H](n3cnc4ccccc43)CC1=CC[C@@H]1[C@@H]2CC[C@]2(C)C(n3cnc4ccccc43)=CC[C@@H]12` [VNPP433 (A2), 3β-(1H-benzimidazol-1-yl)-17-(1H-benzimidazol-1-yl)androsta-5,16-diene], the “AR down-regulation against full length AR” value in the data set on full length AR was “activity (AR down-regulation)”.

Molecule `c1cc(-c2ccc(CCn3cnc4ccccc43)cc2)cc(-c2nn[nH]n2)c1` [VNPP364, 5-{3-[4-(benzimidazolylethyl)phenyl]phenyl}-1H-1,2,3,4-tetraazole] yielded a melting point of 223 to 225 °C.

For `C[C@]12CC[C@H](n3ccnc3)CC1=CC[C@@H]1[C@@H]2CC[C@]2(C)C(n3cnc4ccccc43)=CC[C@@H]12` [VNPP433-3β, 3β-(1H-imidazol-1-yl)-17-(1H-benzimidazol-1-yl) androsta-5,16-diene], the GI50 came out at 1.64 µM in the data set with LNCaP cells (setting [5]); 0.81 µM with LNCaP cells (setting [11]); 1.64 µM with LNCaP cells (setting [12]); 0.81 µM with LNCaP cells (setting [7]); 2.54 µM with CWR22Rv1 (setting [6]); 2.54 µM in the data set on CWR22Rv1 (CWR22Rv1, Table 10). The “AR down-regulation against full length AR” value in the data set with full length AR is “activity (AR down-regulation)”.

With `COc1ccc(S(=O)(=O)Nc2cccc(-n3cnc4ccccc43)c2)cc1` [VNPP431, (3-benzimidazolylphenyl)[(4-methoxyphenyl)sulfonyl]amine], the GI50 in the data set on LNCaP cells (setting [8]) came out at 3.14 µM; in the data set on LNCaP cells (setting [9]) it was 5.23 µM; with CWR22Rv1 (setting [10]) it was 4.78 µM.

Consider `COc1cccc(-c2ccc(Cn3cnc4ccccc43)cc2)c1` [VNPP347B, 3-[4-(benzimidazolylmethyl)phenyl]-1-methoxybenzene], for which the GI50 in the data set on LNCaP cells (setting [8]) came out at 4.41 µM; in the data set on CWR22Rv1 (setting [10]), 14 µM.

In the case of `N#Cc1cccc(-c2ccc(Cn3cnc4ccccc43)cc2)c1` [VNPP358, 3-[4-(benzimidazolylmethyl)phenyl]benzenecarbonitrile], the results for the GI50 in the data set with LNCaP cells (setting [8]), in the data set with LNCaP cells (setting [9]) and in the data set on CWR22Rv1 (setting [10]) were 3.5 µM, 3.71 µM and 10.5 µM, respectively.

In turn, `c1cc(-c2ccc(Cn3cnc4ccccc43)cc2)cc(-c2nn[nH]n2)c1` [VNPP361, 5-{3-[4-(benzimidazolylmethyl)phenyl]phenyl}-1H-1,2,3,4-tetraazole] displayed a melting point of 231 to 233 °C.

With `C[C@]12CC[C@H](OCc3ccncc3)CC1=CC[C@@H]1[C@@H]2CC[C@]2(C)C(n3cnc4ccccc43)=CC[C@@H]12` [VNPP414, 3β-(pyridine-4-ylmethoxy)-17-(1H-benzimidazol-1-yl) androsta-5,16-diene], the GI50 in the data set on LNCaP cells (setting [5]) was 2.45 µM; with LNCaP cells (setting [11]), 0.87 µM; in the data set on LNCaP cells (setting [12]), 2.45 µM; in the data set on LNCaP cells (setting [7]), 0.87 µM; in the data set on CWR22Rv1 (setting [6]) it was 3.24 µM; with CWR22Rv1 (CWR22Rv1, Table 10), 3.24 µM. Moreover, the “Expression of CDC25c, Mnk2, Cyclin D1, Cox-2 and N-Cadherin” value in [3] is reported as “reduced”. Also, the “PARP cleavage (signature of apoptosis)” value in [3] is “significant increase”. In data set [4], the “Phosphorylation of eIF4E” value is given as “downregulated”. For the same molecule, the “Protein expression of N-Cadherin, AR3, Mnk1/2, MMP-2, Ezh2, Mc1-1” value in [4] is on record as “decreased”. Further, the “Migration of PC3 cells” value in the data set with PC3 cells is given as “profoundly inhibit migration”.

Regarding `C[C@]12CCC3c4ccc(C(=O)O)cc4CCC3C1CC=C2n1cnc2ccccc21` (stereo partly drawn) [VNPP341], the “Anticancer activity (SAR statement)” value in data set [1] is “moderately acting”. At AR protein, the “AR down-regulating action (AR protein levels, western blot)” value is “AR up-regulators”. Besides, the “AR down-regulation against full length AR and the splice variants ARs” value in data set [2] was “showed activity (AR down-regulation)”.

`C[C@]12CC[C@@H](n3ccnc3)CC1=CC[C@@H]1[C@@H]2CC[C@]2(C)C(n3cnc4ccccc43)=CC[C@@H]12` [VNPP433-3α, 3α-(1H-imidazol-1-yl)-17-(1H-benzimidazol-1-yl) androsta-5,16-diene]: the GI50 in the data set on LNCaP cells (setting [5]) is 8.91 µM; in the data set on LNCaP cells (setting [11]), 4.04 µM; in the data set with CWR22Rv1 (setting [6]), 9.88 µM. In the data set on full length AR, the “AR down-regulation against full length AR” value was “activity (AR down-regulation)”.

Regarding `C[C@]12CCC3CC31[C@H](n1ccnc1)CC1C3CC=C(n4cnc5ccccc54)C3CCC12` (stereo partly drawn) [VNPP433-6β, 6β-imidazol-1yl-3,5-cycloandrostan-17-benzimidazole-1-yl-16-ene], the GI50 is 6.61 µM with LNCaP cells (setting [5]) and 12.3 µM in the data set on CWR22Rv1 (setting [6]). The “AR down-regulation against full length AR” value in the data set on full length AR was “activity (AR down-regulation)”.

The values above are taken from patent publication US9694005B2, “Nonsteroidal and steroidal compounds with potent androgen receptor down-regulation and anti prostate cancer activity” (University of Maryland, Baltimore, priority 2013, dated 2017).
